The target of the test is T1, Mouse TMEM16A (Mus musculus, UniProt Q8BHY3).
T1 construct: expressed in transfected cells; host or cells: HEK-293T
T1 sequence (Q8BHY3 1-960): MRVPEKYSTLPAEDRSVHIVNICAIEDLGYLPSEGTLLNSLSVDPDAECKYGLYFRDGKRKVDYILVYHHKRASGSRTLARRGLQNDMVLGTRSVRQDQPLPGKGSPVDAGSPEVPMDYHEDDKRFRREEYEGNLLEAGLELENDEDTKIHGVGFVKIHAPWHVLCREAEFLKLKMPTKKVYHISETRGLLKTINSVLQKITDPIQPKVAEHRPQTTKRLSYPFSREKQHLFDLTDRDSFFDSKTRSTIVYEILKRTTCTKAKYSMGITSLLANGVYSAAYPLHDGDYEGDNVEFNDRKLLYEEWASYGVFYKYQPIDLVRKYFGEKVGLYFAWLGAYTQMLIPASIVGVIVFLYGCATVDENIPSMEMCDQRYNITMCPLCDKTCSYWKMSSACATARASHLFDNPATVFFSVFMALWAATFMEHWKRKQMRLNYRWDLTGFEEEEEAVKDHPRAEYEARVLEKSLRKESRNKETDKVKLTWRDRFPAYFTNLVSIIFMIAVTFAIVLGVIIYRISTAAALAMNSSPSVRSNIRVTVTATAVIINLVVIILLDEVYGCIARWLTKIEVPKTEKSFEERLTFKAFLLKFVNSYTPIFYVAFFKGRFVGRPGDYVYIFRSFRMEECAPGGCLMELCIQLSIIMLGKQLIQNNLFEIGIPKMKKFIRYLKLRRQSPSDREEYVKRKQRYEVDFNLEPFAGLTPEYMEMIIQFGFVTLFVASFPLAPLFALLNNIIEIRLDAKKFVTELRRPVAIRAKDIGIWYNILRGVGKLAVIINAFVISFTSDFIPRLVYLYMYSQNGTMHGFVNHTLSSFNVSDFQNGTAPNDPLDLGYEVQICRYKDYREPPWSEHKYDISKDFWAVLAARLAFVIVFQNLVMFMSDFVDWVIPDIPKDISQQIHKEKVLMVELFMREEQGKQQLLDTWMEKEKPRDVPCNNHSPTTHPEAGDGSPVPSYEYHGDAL
The experiment in a line: Time-course of current block analysed by Langmuir formalism (kon, koff), 12.5 μM [Ca2+]i. The test is classed as cell-based. The settings on record: for Ki: read-out: Ki calculated as koff/kon. As for the experimental part:
To investigate the precise mechanism by which extracellular A9C inhibits TMEM16A channels, macroscopic whole‐cell currents were recorded in the presence of 12.5 μM [Ca^2+]i and in response to 250 ms steps to various V m test pulse from a holding V m of −70 mV. The negative holding V m was used to prevent channel block before the test pulse was elicited. […] The time‐course of this decrease was described by a single‐exponential function characterized by a time constant τ B. The extent of the decrease in current was measured for various [A9C]ext and various V m test pulse and then plotted relative to the current measured in the absence of A9C (I 0) (Figure 3B). The γ values were close to 1 at each V m. In contrast, K i decreased as the V m was increased (Figure 3C). […] Thus, A9C appeared to block TMEM16A channels according to a Woodhull mechanism, consistent with a single A9C molecule blocking the channel pore.
The K i at various V m can also be estimated from analysis of the time‐course of current inhibition at various V m (see Supporting Information for details). K i estimated from this analysis were plotted against the V m in Figure 3C (open symbols). It is clear that K i estimated in this way is similar to the K i estimated from the Hill fit of the dose–response curves (filled symbols). […]
SUPPLEMENTARY INFORMATION
TMEM16A currents were measured with the whole-cell or inside-out configuration of
the patch-clamp technique using an Axon 200B amplifier (Molecular Devices, USA)
controlled with GE-pulse software (http://users.ge.ibf.cnr.it/pusch/programs-mik.htm).
Currents were filtered at 2-5 kHz and sampled at 10 kHz, unless stated otherwise.
Pipettes were prepared from borosilicate glass capillary tubes (Harvard Apparatus,
USA) using a Narishige PC-10 pipette puller (Narishige, Japan). Pipette tip diameter
yielded a resistance of 2.2 to 2.8 MΩ in the working solutions. The bath was grounded
through a 3 M KCl agar bridge connected to a Ag-AgCl reference electrode. In whole-
cell recordings, the series resistance was usually compensated by ≥70 % to achieve a
maximal effective series resistance generally lower than ~5 MΩ. To allow for
equilibration of the pipette solution with the cell interior, recordings started 5 min after
establishing the whole-cell configuration (Manoury, Tamuleviciute & Tammaro, 2010).
Experiments were conducted at 20-22 °C. The cell capacitance was assessed by
measuring the area beneath a capacitive transient elicited by a 10 mV step or via the
cell capacity compensation circuit of the amplifier.
Estimation of Ki at various Vm using the Langmuir formalism
Detailed kinetic analysis of TMEM16A channel activity is likely to require complex
models to account for the effects of Ca2+ and voltage on channel gating (Hartzell,
Putzier & Arreola, 2005). However, a simplified two-state kinetic scheme may be
applicable in conditions in which high [Ca2+]i is maintained to maximally activate the
TMEM16A channel. Under these conditions, and assuming that a molecule of A9C
binding into the pore of a TMEM16A channel results in the complete block of Cl- fluxes,
the Langmuir formalism applies:
Where O represents the conductive state and OB(A9C) is the A9C-blocked state. kon and
koff are the association and dissociation constant, respectively and Ki = koff/kon is the
apparent equilibrium dissociation constant.
The scheme (I) refers to the following differential equations: […]
(1 picture or pasted object on this page, not shown here)
Where O and OB(A9C) describe the probability of being open (unliganded) or blocked,
Thus, in the presence of a fixed [A9C]ext, when the Vm is stepped to a defined test-pulse
Where O∞ is the value of O(t) at the steady state and O(0) is the value of O(t) at the
beginning of the test pulse while τB is the time constant.
fitted with supplementary equation 3 and the resulting τB-1 plotted versus [A9C]ext
(Suppl. Fig.2). Supplementary equation 5 was used to fit the τB-1 obtained at a given Vm, […]

Read-outs that look alike come from different tables or passages of the source.

Consider `O=C(O)c1c2ccccc2cc2ccccc12` [A9C, Anthracene‐9‐carboxylic acid], for which the dissociation rate constant (koff) was 94 ± 5 s⁻¹ (Vm 20 mV); 71 ± 9 s⁻¹ (Vm 40 mV); 49 ± 13 s⁻¹ (Vm 60 mV); 34 ± 9 s⁻¹ (Vm 80 mV); 12 ± 25 s⁻¹ (Vm 100 mV); 21 ± 17 s⁻¹ (Vm 120 mV). Further, the Ki is 168 µM (Vm 20 mV); 104 µM (Vm 40 mV); 62 µM (Vm 60 mV); 38 µM (Vm 80 mV); 12 µM (Vm 100 mV); 19 µM (Vm 120 mV).

Values taken from publication PMC4728427, “Mechanism of allosteric activation of TMEM16A/ANO1 channels by a commonly used chloride channel blocker” (British Journal of Pharmacology, 2016).
